Like-named read-outs stand apart in the source and are kept apart here.
Molecular target: T1, PIP4K2C (Homo sapiens, UniProt Q8TBX8)
T1 sequence (Q8TBX8 1-421): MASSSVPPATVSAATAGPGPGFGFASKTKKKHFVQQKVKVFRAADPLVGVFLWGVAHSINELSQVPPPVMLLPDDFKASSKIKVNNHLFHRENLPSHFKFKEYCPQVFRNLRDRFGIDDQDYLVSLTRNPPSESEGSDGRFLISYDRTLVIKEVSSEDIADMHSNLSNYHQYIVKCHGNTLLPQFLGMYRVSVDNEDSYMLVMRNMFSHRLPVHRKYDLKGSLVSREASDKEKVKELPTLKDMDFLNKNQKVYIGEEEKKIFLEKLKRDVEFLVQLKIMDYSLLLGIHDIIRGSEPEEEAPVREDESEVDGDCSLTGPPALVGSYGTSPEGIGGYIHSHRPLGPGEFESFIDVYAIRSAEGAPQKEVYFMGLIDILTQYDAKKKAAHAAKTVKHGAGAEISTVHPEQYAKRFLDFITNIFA
Test: HiBiT PIP4K2C degradation assay in MOLT-4 cells (endogenous PIP4K2C C-terminally tagged with HiBiT)
Format: cell-based
Set-up: untagged in primary human PBMCs and monocyte-derived dendritic cells
Details: MOLT-4, top concentration 10 micromolar
Method in brief: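 DC50 derived by Hill fit of luminescence from Nano-Glo HiBiT lytic detection. Cells were HiBiT knock-in MOLT-4 (C-terminal tag on endogenous PIP4K2C), exposed 6 h or 24 h at 37 C to compound, top concentration 10 micromolar, 3-fold steps, 10 points, duplicates.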

[1] = 6 hours of incubation time, rather than 24 hours, read-out: HiBIT-degradation MOLT4 PIP4k2C DC50 (6 hours, marked *)
[2] = 24 hours incubation, read-out: HiBIT-degradation MOLT4 PIP4k2C 24 hours DC50

SMILES	DC50 [1]	DC50 [2]
O=C1CC[C@@H](Nc2ccc(C3CCN(CC4CCN(C(=O)[C@H]5CC[C@H](Nc6ncc(F)c(-c7cccc(-n8ccccc8=O)c7)n6)CC5)CC4)CC3)c(F)c2)C(=O)N1 (single isomer, unassigned) [Compound 455]	< 500 nM	–
O=C1CC[C@H](Nc2ccc(C3CCN(CC4CCN(C(=O)[C@H]5CC[C@H](Nc6ncc(F)c(-c7cccc(-n8ccccc8=O)c7)n6)CC5)CC4)CC3)c(F)c2)C(=O)N1 (single isomer, unassigned) [Compound 456]	< 500 nM	–
O=C1CC[C@H](Nc2ccc(N3CCN([C@H]4CC[C@H](C(=O)N[C@H]5CC[C@H](Nc6ncc(F)c(-c7cccc(N8CCCCC8=O)c7)n6)CC5)CC4)CC3)c(F)c2)C(=O)N1 (single isomer, unassigned) [Compound 458]	< 500 nM	–
O=C1CC[C@H](Nc2ccc(N3CCN([C@H]4CC[C@H](C(=O)N[C@H]5CC[C@H](Nc6ncc(F)c(-c7cccc(N8CCCOC8=O)c7)n6)CC5)CC4)CC3)c(F)c2)C(=O)N1 (single isomer, unassigned) [Compound 462]	< 500 nM	–
O=C1CCC(Nc2ccc(C3CCN([C@H]4CC[C@H](C(=O)N[C@H]5CC[C@H](Nc6ncc(F)c(-c7cccc(N8CCCCC8=O)c7)n6)CC5)CC4)CC3)c(F)c2)C(=O)N1 (single isomer, unassigned) [Compound 592]	< 500 nM	–
O=C1CC[C@@H](Nc2ccc(C3CCN([C@H]4CC[C@H](C(=O)N[C@H]5CC[C@H](Nc6ncc(F)c(-c7cccc(N8CCCCC8=O)c7)n6)CC5)CC4)CC3)c(F)c2)C(=O)N1 (single isomer, unassigned) [Compound 593]	< 500 nM	–
O=C1CC[C@H](Nc2ccc(N3CCC(N4CCC(O)(C(=O)N[C@H]5CC[C@H](Nc6ncc(F)c(-c7cccc(-n8ccccc8=O)c7)n6)CC5)CC4)CC3)c(F)c2)C(=O)N1 (single isomer, unassigned) [Compound 594]	< 500 nM	–
O=C1CC[C@@H](Nc2ccc(N3CCC(N4CCC(O)(C(=O)N[C@H]5CC[C@H](Nc6ncc(F)c(-c7cccc(-n8ccccc8=O)c7)n6)CC5)CC4)CC3)c(F)c2)C(=O)N1 (single isomer, unassigned) [Compound 595]	< 500 nM	–
O=C1CC[C@H](Nc2ccc(C3CCN(CC4CCN(C(=O)[C@H]5CC[C@H](Nc6ncc(F)c(-c7cccc(N8CCCOC8=O)c7)n6)CC5)CC4)CC3)c(F)c2)C(=O)N1 (single isomer, unassigned) [Compound 600]	< 500 nM	–
O=C1CC[C@@H](Nc2ccc(C3CCN(CC4CCN(C(=O)[C@H]5CC[C@H](Nc6ncc(F)c(-c7cccc(N8CCCOC8=O)c7)n6)CC5)CC4)CC3)c(F)c2)C(=O)N1 (single isomer, unassigned) [Compound 601]	< 500 nM	–
O=C1CC[C@H](Nc2ccc(N3CCN([C@H]4CC[C@H](C(=O)N[C@H]5CC[C@H](Nc6ncc(F)c(-c7cccc(-n8ccccc8=O)c7)n6)CC5)CC4)CC3)c(F)c2)C(=O)N1 (single isomer, unassigned) [Compound 603]	< 500 nM	–
Cn1nc([C@@H]2CCC(=O)NC2=O)c2ccc(C3CCN(CC4CCN(C(=O)O[C@H]5CC[C@H](Nc6ncc(F)c(-c7cccc(-n8ccccc8=O)c7)n6)CC5)CC4)CC3)cc21 (single isomer, unassigned) [Compound 638]	< 500 nM	–
Cn1nc([C@H]2CCC(=O)NC2=O)c2ccc(C3CCN(CC4CCN(C(=O)O[C@H]5CC[C@H](Nc6ncc(F)c(-c7cccc(-n8ccccc8=O)c7)n6)CC5)CC4)CC3)cc21 (single isomer, unassigned) [Compound 639]	< 500 nM	–
O=C1CCC(Nc2ccc(C3CCN(C[C@H]4CC[C@H](NC(=O)[C@H]5CCC[C@@H](Nc6ncc(F)c(-c7cccc(-n8ccccc8=O)c7)n6)C5)CC4)CC3)c(F)c2)C(=O)N1 (stereo in doubt) [Compound 324, trans-N-(cis-4-((4-(4-((2,6-dioxopiperidin-3-yl)amino)-2-fluorophenyl)piperidin-1-yl)methyl)cyclohexyl)-3-((5-fluoro-4-(3-(2-oxopyridin-1(2H)-yl)phenyl)pyrimidin-2-yl)amino)cyclohexane-1-carboxamide]	–	< 500 nM
Cn1c(=O)n(C2CCC(=O)NC2=O)c2ccc(C3CCN(CCN4CCC(C(=O)N5CCC(Nc6ncc(Cl)c(-c7cccc(-c8ccccc8)c7)n6)CC5)CC4)CC3)cc21 (stereo not drawn) [Compound 45, 3-[5-[1-[2-[4-[4-[[5-chloro-4-(3-phenylphenyl)pyrimidin-2-yl]amino]piperidine-1-carbonyl]-1-piperidyl]ethyl]-4-piperidyl]-3-methyl-2-oxo-benzimidazol-1-yl]piperidine-2,6-dione]	–	< 500 nM
Cn1c(=O)n(C2CCC(=O)NC2=O)c2ccc(C3CCN(CC4CCN(CC(=O)N5CCC(Nc6ncc(Cl)c(-c7cccc(-c8ccccc8)c7)n6)CC5)CC4)CC3)cc21 (stereo not drawn) [Compound 47, 3-(5-(1-((1-(2-(4-((4-([1,1′-biphenyl]-3-yl)-5-chloropyrimidin-2-yl)amino)piperidin-1-yl)-2-oxoethyl)piperidin-4-yl)methyl)piperidin-4-yl)-3-methyl-2-oxo-2,3-dihydro-1H-benzo[d]imidazol-1-yl)piperidine-2,6-dione]	–	< 500 nM
O=C1CCC(Nc2ccc(C3CCN(C4CCN(CCC(=O)N5CCC(Nc6ncc(Cl)c(-c7cccc(-c8ccccc8)c7)n6)CC5)CC4)CC3)cc2)C(=O)N1 (stereo not drawn) [Compound 48, 3-((4-(1′-(3-(4-((4-([1,1′-biphenyl]-3-yl)-5-chloropyrimidin-2-yl)amino)piperidin-1-yl)-3-oxopropyl)-[1,4′-bipiperidin]-4-yl)phenyl)amino)piperidine-2,6-dione]	–	< 500 nM

Second part, the molecule after the results:

DC50 [1]	DC50 [2]	SMILES
< 500 nM	–	O=C1CC[C@@H](Nc2ccc(C3CCN(CC4CCN(C(=O)[C@H]5CC[C@H](Nc6ncc(F)c(-c7cccc(N8CCCCC8=O)c7)n6)CC5)CC4)CC3)c(F)c2)C(=O)N1 (single isomer, unassigned) [Compound 448]
< 500 nM	–	O=C1CC[C@H](Nc2ccc(C3CCN(CC4CCN(C(=O)[C@H]5CC[C@H](Nc6ncc(F)c(-c7cccc(N8CCCCC8=O)c7)n6)CC5)CC4)CC3)c(F)c2)C(=O)N1 (single isomer, unassigned) [Compound 449]
< 500 nM	–	O=C1CC[C@@H](Nc2ccc(N3CCN(C[C@H]4CC[C@H](CNC(=O)[C@H]5CC[C@H](Nc6ncc(F)c(-c7cccc(-n8ccccc8=O)c7)n6)CC5)CC4)CC3)c(F)c2)C(=O)N1 (single isomer, unassigned) [Compound 459]
< 500 nM	–	O=C1CC[C@H](Nc2ccc(N3CCN(C[C@H]4CC[C@H](CNC(=O)[C@H]5CC[C@H](Nc6ncc(F)c(-c7cccc(-n8ccccc8=O)c7)n6)CC5)CC4)CC3)c(F)c2)C(=O)N1 (single isomer, unassigned) [Compound 460]
< 500 nM	–	O=C1CC[C@@H](Nc2ccc(N3CCN([C@H]4CC[C@H](C(=O)N[C@H]5CC[C@H](Nc6ncc(F)c(-c7cccc(N8CCCOC8=O)c7)n6)CC5)CC4)CC3)c(F)c2)C(=O)N1 (single isomer, unassigned) [Compound 461]
< 500 nM	–	O=C1CC[C@@H](Nc2ccc(N3CCN([C@H]4CC[C@H](C(=O)N[C@H]5CC[C@H](Nc6ncc(F)c(-c7cccc(-n8ccccc8=O)c7)n6)CC5)CC4)CC3)c(F)c2)C(=O)N1 (single isomer, unassigned) [Compound 602]
–	< 500 nM	O=C1CCC(N2Cc3cc(OC4CCN(C(=O)C5CCN(C(=O)C6CCC[C@@H](Nc7ncc(Cl)c(-c8cccc(-c9ccccc9)c8)n7)C6)CC5)CC4)ccc3C2=O)C(=O)N1 (stereo in doubt) [Compound 77, cis-3-(5-((1-(1-(3-((4-([1,1′-biphenyl]-3-yl)-5-chloropyrimidin-2-yl)amino)cyclohexane-1-carbonyl)piperidine-4-carbonyl)piperidin-4-yl)oxy)-1-oxoisoindolin-2-yl)piperidine-2,6-dione]
–	< 500 nM	Cn1c(=O)n(C2CCC(=O)NC2=O)c2ccc(C3CCN(CCN4CCC(C(=O)N5CCC[C@H](Nc6ncc(Cl)c(-c7cccc(-c8ccccc8)c7)n6)C5)CC4)CC3)cc21 (stereo partly drawn) [Compound 44, 3-(5-(1-(2-(4-((S)-3-((4-([1,1′-biphenyl]-3-yl)-5-chloropyrimidin-2-yl)amino)piperidine-1-carbonyl)piperidin-1-yl)ethyl)piperidin-4-yl)-3-methyl-2-oxo-2,3-dihydro-1H-benzo[d]imidazol-1-yl)piperidine-2,6-dione]
–	< 500 nM	Cn1c(=O)n(C2CCC(=O)NC2=O)c2ccc(C3CCN(C(=O)CN4CCC(C(=O)N5CCC(Nc6ncc(Cl)c(-c7cccc(-c8ccccc8)c7)n6)CC5)CC4)CC3)cc21 (stereo not drawn) [Compound 46, 3-(5-(1-(2-(4-(4-((4-([1,1′-biphenyl]-3-yl)-5-chloropyrimidin-2-yl)amino)piperidine-1-carbonyl)piperidin-1-yl)acetyl)piperidin-4-yl)-3-methyl-2-oxo-2,3-dihydro-1H-benzo[d]imidazol-1-yl)piperidine-2,6-dione]
–	< 500 nM	O=C1CCC(N2Cc3cc(C4CCN(CC5CCN(CC(=O)N6CCC(Nc7ncc(Cl)c(-c8cccc(-c9ccccc9)c8)n7)CC6)CC5)CC4)ccc3C2=O)C(=O)N1 (stereo not drawn) [Compound 50]

Source: patent publication US20260355196A1, “INHIBITORS AND DEGRADERS OF PIP4K PROTEIN” (Larkspur Biosciences, Inc., priority 2023, published 2026)
